Experimental data published in patent US20260000698A1 (priority 2022, published 2026).

Experiments:
SARS-CoV-2 Nsp14 MTase [1] = target: T1, SARS-CoV-2 Nsp14 MTase (Severe acute respiratory syndrome coronavirus 2, UniProt P0DTD1); assay: biochemical; type: biochemical
[2] = tested on: SARS-CoV-2 isolate USA-WA1/2020; settings: for EC50: NA (not active): inhibition at 50 μM
A549/ACE2/TMPRSS2 cells = assay: in vitro; settings: for CC50: NT (nontoxic): cell viability at 50 μM; for CC50: A549/ACE2/TMPRSS2 cells; for cytotoxicity: human, 100 μM
Experimental: Percentage of infected cells was determined by dividing the number of infected cells by the total number of cells per well. The percentage of infected cells and total number of cells for each treatment was plotted into GraphPad prism (GraphPad Software; San Diego, CA, USA) to perform a non-linear regression analysis, generate infectious dose-response curves and to calculate EC50 and CC50 values.
Viability assays for the non-infected A549/ACE2/TMPRSS2 cells were performed using the 3-(4,5-dimethylthiazol-2-yl)-5-(3-carboxymethoxyphenyl)-2-(4-sulfophenyl)-2H-tetrazolium (MTS)-based tetrazolium reduction CellTiter 96 Aqueous Non-Radioactive cell proliferation assay (Promega G5430; Madison, WI) as described. Assays were conducted using parallel plates to those used in the immunofluorescence assay. Experimental details (cell line, number of cells seeded and incubation time) corresponded to those used in the immunofluorescence assay above. The data obtained were used to calculate the CC50 value using GraphPad Prism software.

[3] = tested on: SARS-CoV-2 isolate USA-WA1/2020; assay: microbe, parasite or virus in culture; settings: Severe acute respiratory syndrome coronavirus 2, A549-ACE2, 48 h
SARS-CoV-2 Nsp14 MTase [4] = target: T1, SARS-CoV-2 Nsp14 MTase; assay: Nsp14 MTase assay detected with MTase-Glo methyltransferase assay kit; type: biochemical; settings: for IC50: methylation reaction detected by MTase-Glo kit; for inhibition at 10 µM: read-out: MTase % inhibition at 10 μM
Experimental: Detection using MTase-Glo™ methyltransferase assay kits. The assay was run according to Promega MTase-Glo™ kit (V7601) instructions. […]. GpppA was purchased by New England Biolabs and used at a final concentration of 3 uM/reaction. […] […] Compounds, Nsp14, GpppA at MTase-Glo™ reagent were pre-incubated for 15 min at room temperature. The assay was started with addition of SAM at final concentration of 1 uM/reaction (negative control had no SAM). The assay plate was mixed well with a plate shaker after each addition. The reaction was incubated for 15 min at 30° C. MTase-Glo™ detection solution was added, and the plate was incubated 60 min at room temperature. Luminescence was read on an M5e spectrophotometer.

[5] = LC-MS/MS detection of SAH, read-out: MTase IC50

With Nc1ncnc2c1ncn2[C@@H]1O[C@H](CNCc2ccc3ccccc3c2)[C@@H](O)[C@H]1O [Compound 1, (2R,3R,4S,5R)-2-(6-Amino-9H-purin-9-yl)-5-(((naphthalen-2-ylmethyl)amino)methyl)tetrahydrofuran-3,4-diol] the IC50 (SARS-CoV-2 Nsp14 MTase [1]; [5]) was 9600 nM, the “EC50: NA (not active)” value [2] was “NA^a (NA, not active, <15% inhibition at 50 μM.)” and the “CC50: NT (nontoxic)” value (A549/ACE2/TMPRSS2 cells) was “NT^b (NT, nontoxic, >95% cell viability at 50 μM;)”.

For Nc1ncnc2c1ncn2[C@@H]1O[C@H](CNC(=O)c2ccc3ccccc3c2)[C@@H](O)[C@H]1O [Compound 2, N-(((2R,3S,4R,5R)-5-(6-Amino-9H-purin-9-yl)-3,4-dihydroxytetrahydrofuran-2-yl)methyl)-2-naphthamide], the IC50 (SARS-CoV-2 Nsp14 MTase [1]; [5]) was 2700 nM, the “EC50: NA (not active)” value [2] was “NA^a (NA, not active, <15% inhibition at 50 μM.)” and the “CC50: NT (nontoxic)” value (A549/ACE2/TMPRSS2 cells) was “NT^b (NT, nontoxic, >95% cell viability at 50 μM;)”.

Nc1ncnc2c1ncn2[C@@H]1O[C@H](CNS(=O)(=O)c2ccc3cccnc3c2)[C@@H](O)[C@H]1O [Compound 4, N-(((2R,3S,4R,5R)-5-(6-Amino-9H-purin-9-yl)-3,4-dihydroxytetrahydrofuran-2-yl)methyl)quinoline-7-sulfonamide] was tested, and the “MTase inhibitory activity” value (SARS-CoV-2 Nsp14 MTase [1]) was “comparable to that of compound 1”, the IC50 (SARS-CoV-2 Nsp14 MTase [1]; [5]) was 69 nM and the “EC50: NA (not active)” value [2] was “NA^a (NA, not active, <15% inhibition at 50 μM.)”. The “CC50: NT (nontoxic)” value (A549/ACE2/TMPRSS2 cells) was “NT^b (NT, nontoxic, >95% cell viability at 50 μM;)”.

In the case of Nc1ncnc2c1ncn2[C@@H]1O[C@H](CNS(=O)(=O)c2ccc3nc(Cl)ccc3c2)[C@@H](O)[C@H]1O [Compound 5, N-(((2R,3S,4R,5R)-5-(6-Amino-9H-purin-9-yl)-3,4-dihydroxytetrahydrofuran-2-yl)methyl)-2-chloroquinoline-6-sulfonamide], the IC50 (SARS-CoV-2 Nsp14 MTase [1]; [5]) is reported as 440 nM, the “fold reduction in inhibitory activity” value (SARS-CoV-2 Nsp14 MTase [1]; on replacing 2-naphthalene) is reported as 7 fold and the “EC50: NA (not active)” value [2] is reported as “NA^a (NA, not active, <15% inhibition at 50 μM.)”. For the same molecule, the “CC50: NT (nontoxic)” value (A549/ACE2/TMPRSS2 cells) was “NT^b (NT, nontoxic, >95% cell viability at 50 μM;)”.

In the case of CC(=O)Nc1ncnc2c1ncn2[C@@H]1O[C@H](CNS(=O)(=O)c2ccc3ccccc3c2)[C@@H](O)[C@H]1O [Compound 6, N-(9-((2R,3R,4S,5R)-3,4-Dihydroxy-5-((naphthalene-2-sulfonamido)methyl)tetrahydrofuran-2-yl)-9H-purin-6-yl)acetamide], the IC50 (SARS-CoV-2 Nsp14 MTase [1]; LC-MS/MS assay, read-out: IC50) is reported as 48 nM, the “EC50: NA (not active)” value [2] is reported as “NA^a (NA, not active, <15% inhibition at 50 μM.)” and the CC50 (A549/ACE2/TMPRSS2 cells) is reported as > 100000 nM.

In the case of CC(=O)O[C@@H]1[C@H](OC(C)=O)[C@@H](CNS(=O)(=O)c2ccc3ccccc3c2)O[C@H]1n1cnc2c(N)ncnc21 [Compound 8, (2R,3R,4R,5R)-2-(6-Amino-9H-purin-9-yl)-5-((naphthalene-2-sulfonamido)methyl)tetrahydrofuran-3,4-diyl diacetate], the EC50 [3] is reported as 53000 nM, the CC50 (A549/ACE2/TMPRSS2 cells) is reported as > 100000 nM and the “cytotoxicity” value (A549/ACE2/TMPRSS2 cells) is reported as “minimal cytotoxicity at 100 μM”.

CC(=O)Nc1ncnc2c1ncn2[C@@H]1O[C@H](CNS(=O)(=O)c2ccc3ccccc3c2)[C@@H](OC(C)=O)[C@H]1OC(C)=O [Compound 9, (2R,3R,4R,5R)-2-(6-Acetamido-9H-purin-9-yl)-5-((naphthalene-2-sulfonamido)methyl)tetrahydrofuran-3,4-diyl diacetate] was tested, and the EC50 [3] was 61000 nM, the CC50 (A549/ACE2/TMPRSS2 cells) was > 100000 nM and the “cytotoxicity” value (A549/ACE2/TMPRSS2 cells) was “minimal cytotoxicity at 100 μM”.

In the case of CC(=O)O[C@@H]1[C@H](OC(C)=O)[C@@H](CNS(=O)(=O)c2ccc3ccccc3c2)O[C@H]1c1ccc2c(N)ncnn12 [Compound 11, (2S,3S,4R,5R)-2-(4-Aminopyrrolo[2,1-f][1,2,4]triazin-7-yl)-5-((naphthalene-2-sulfonamido)methyl)tetrahydrofuran-3,4-diyl diacetate], the EC50 [3] is reported as 4300 nM, the “antiviral activity” value ([2]; A549 AT cells) is reported as “less active” and the CC50 (A549/ACE2/TMPRSS2 cells) is reported as 63000 nM. For the same molecule, the “cytotoxicity” value (A549/ACE2/TMPRSS2 cells) was “more toxic than 10”.

Work on Nc1ncnn2c([C@@H]3O[C@H](CNS(=O)(=O)c4ccc5c(Cl)cccc5c4)[C@@H](O)[C@H]3O)ccc12 [Compound 39, N-(((2R,3S,4R,5S)-5-(4-aminopyrrolo[2,1-f][1,2,4]triazin-7-yl)-3,4-dihydroxytetrahydrofuran-2-yl)methyl)-5-chloronaphthalene-2-sulfonamide] yielded an IC50 (SARS-CoV-2 Nsp14 MTase [4]) of 49 nM.

Work on COc1ccc(S(=O)(=O)NC[C@H]2O[C@@H](c3ccc4c(N)ncnn34)[C@H](O)[C@@H]2O)cc1C#N [Compound 41, N-(((2R,3S,4R,5S)-5-(4-aminopyrrolo[2,1-f][1,2,4]triazin-7-yl)-3,4-dihydroxytetrahydrofuran-2-yl)methyl)-3-cyano-4-methoxybenzenesulfonamide] yielded an inhibition at 10 µM (SARS-CoV-2 Nsp14 MTase [4]) of 94%.

COc1ccc(S(=O)(=O)NC[C@H]2O[C@@H](c3ccc4c(N)ncnn34)[C@H](O)[C@@H]2O)cc1[N+](=O)[O-] [Compound 43, N-(((2R,3S,4R,5S)-5-(4-aminopyrrolo[2,1-f][1,2,4]triazin-7-yl)-3,4-dihydroxytetrahydrofuran-2-yl)methyl)-4-methoxy-3-nitrobenzenesulfonamide] gave an inhibition at 10 µM (SARS-CoV-2 Nsp14 MTase [4]) of 79%.

Molecule Nc1ncnn2c([C@@H]3O[C@H](CNS(=O)(=O)c4cccc(-c5ccccc5)c4)[C@@H](O)[C@H]3O)ccc12 [Compound 45, N-(((2R,3S,4R,5S)-5-(4-Aminopyrrolo[2,1-f][1,2,4]triazin-7-yl)-3,4-dihydroxytetrahydrofuran-2-yl)methyl)-[1,1′-biphenyl]-3-sulfonamide] has an inhibition at 10 µM (SARS-CoV-2 Nsp14 MTase [4]) of 85%.

In the case of Nc1ncnn2c([C@@H]3O[C@H](CNS(=O)(=O)c4ccc(-c5ccccc5)cc4)[C@@H](O)[C@H]3O)ccc12 [Compound 47, N-(((2R,3S,4R,5S)-5-(4-Aminopyrrolo[2,1-f][1,2,4]triazin-7-yl)-3,4-dihydroxytetrahydrofuran-2-yl)methyl)-[1,1′-biphenyl]-4-sulfonamide], the inhibition at 10 µM (SARS-CoV-2 Nsp14 MTase [4]) is reported as 85%.

For Nc1ncnn2c([C@@H]3O[C@H](CNS(=O)(=O)c4ccc5ccccc5c4)[C@@H](O)[C@H]3O)cc(F)c12 [Compound 51, N-(((2R,3S,4R,5S)-5-(4-Amino-5-fluoropyrrolo[2,1-f][1,2,4]triazin-7-yl)-3,4-dihydroxytetrahydrofuran-2-yl)methyl)naphthalene-2-sulfonamide], the IC50 (SARS-CoV-2 Nsp14 MTase [4]) was 32 nM.

CCN(C[C@H]1O[C@@H](c2ccc3c(N)ncnn23)[C@H](O)[C@@H]1O)S(=O)(=O)c1ccc2ccccc2c1 [Compound 53, N-(((2R,3S,4R,5S)-5-(4-Aminopyrrolo[2,1-f][1,2,4]triazin-7-yl)-3,4-dihydroxytetrahydrofuran-2-yl)methyl)-N-ethylnaphthalene-2-sulfonamide] showed an IC50 (SARS-CoV-2 Nsp14 MTase [4]) of 156 nM.

With Nc1ncnc2c([C@@H]3O[C@H](CNS(=O)(=O)c4ccc5ccccc5c4)[C@@H](O)[C@H]3O)csc12 [Compound B12, N-(((2R,3S,4R,5S)-5-(4-Aminothieno[3,2-d]pyrimidin-7-yl)-3,4-dihydroxytetrahydrofuran-2-yl)methyl)naphthalene-2-sulfonamide] the inhibition at 10 µM (SARS-CoV-2 Nsp14 MTase [4]) was 91%.

Nc1ncnc2c1ccn2[C@@H]1O[C@H](CNS(=O)(=O)c2ccc3ccccc3c2)[C@@H](O)[C@H]1O [Compound C9, N-(((2R,3S,4R,5R)-5-(4-Amino-7H-pyrrolo[2,3-d]pyrimidin-7-yl)-3,4-dihydroxytetrahydrofuran-2-yl)methyl)naphthalene-2-sulfonamide] showed an IC50 (SARS-CoV-2 Nsp14 MTase [4]) of 19 nM.

In the case of COc1ccc(S(=O)(=O)NC[C@H]2O[C@@H](n3ccc4c(N)ncnc43)[C@H](O)[C@@H]2O)cc1C#N [Compound C11, N-(((2R,3S,4R,5R)-5-(4-Amino-7H-pyrrolo[2,3-d]pyrimidin-7-yl)-3,4-dihydroxytetrahydrofuran-2-yl)methyl)-3-cyano-4-methoxybenzenesulfonamide], the inhibition at 10 µM (SARS-CoV-2 Nsp14 MTase [4]) is reported as 98%.

Work on CCN(C[C@H]1O[C@@H](n2ccc3c(N)ncnc32)[C@H](O)[C@@H]1O)S(=O)(=O)c1ccc(OC)c(C#N)c1 [Compound C13, N-(((2R,3S,4R,5R)-5-(4-Amino-7H-pyrrolo[2,3-d]pyrimidin-7-yl)-3,4-dihydroxytetrahydrofuran-2-yl)methyl)-3-cyano-N-ethyl-4-methoxybenzenesulfonamide] yielded an inhibition at 10 µM (SARS-CoV-2 Nsp14 MTase [4]) of 100%.

CCC(CC)COC(=O)[C@H](C)N[P@](=O)(OC[C@H]1O[C@@](C#N)(c2ccc3c(N)ncnn23)[C@H](O)[C@@H]1O)Oc1ccccc1 [remdesivir, reference compound] was tested, and the EC50 [3] was 93 nM and the CC50 (A549/ACE2/TMPRSS2 cells) was 43000 nM.

In the case of Nc1ncnc2c1ncn2[C@@H]1O[C@H](C[C@@H](N)CC[C@H](N)C(=O)O)[C@@H](O)[C@H]1O [sinefungin, reference compound], the “EC50: NA (not active)” value [2] is reported as “NA^a (NA, not active, <15% inhibition at 50 μM.)” and the “CC50: NT (nontoxic)” value (A549/ACE2/TMPRSS2 cells) is reported as “NT^b (NT, nontoxic, >95% cell viability at 50 μM;)”.
